Where a name gives a salt, the structure may show the parent alone.
Target: T1, ACC1 from rat liver (Rattus norvegicus, UniProt P11497)
T1 construct: The livers (for ACC1 preparation) or skeletal muscle tissue (for ACC2 preparation) are removed; from tissue; host or cells: liver of male CD rats (fasted, then fed a high sucrose diet)
Test: Direct inhibition of ACC1 activity (14C-bicarbonate incorporation)
Format: biochemical
Details: ACC1 from rat liver
How it was run: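 ACC1 partially purified from livers of fasted/sucrose-refed male rats by PEG and ammonium sulfate fractionation, then preincubated 30 min at 37°C with 10 mM citrate and 1.0 mM MgCl2. Reaction ran 7 min at 37°C, stopped with HCl; acid-stable radioactivity counted by scintillation; HCl-first tubes served as blanks.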

Row | SMILES | IC50
1 | Cc1cc2ccc(C(=O)N3CCC4(CC3)CC(=O)c3cc(C)c(C)cc3O4)cc2[nH]1 [Ex. L3, 6,7-dimethyl-1′-[(2-methyl-1H-indol-6-yl)carbonyl]spiro[chromene-2,4′-piperidin]-4(3H)-one trifluoroacetic acid salt] | 368 nM
2 | Cc1cc2c(cc1C)C(=O)CC1(CCN(C(=O)c3ccc4ccn(C)c4c3)CC1)O2 [Ex. L4, 6,7-dimethyl-1′-[(1-methyl-1H-indol-6-yl)carbonyl]spiro[chromene-2,4′-piperidin]-4(3H)-one] | 83.3 nM
3 | Cn1ccc2ccc(C(=O)N3CCC4(CC3)CC(=O)c3cc(Cl)ccc3O4)cc21 [Ex. L5, 6-chloro-1′-[(1-methyl-1H-indol-6-yl)carbonyl]spiro[chromene-2,4′-piperidin]-4(3H)-one] | < 1000 nM
4 | COc1cccc2c1C(=O)CC1(CCN(C(=O)c3ccc4c(Cl)c[nH]c4c3)CC1)O2 [Ex. L6, 1′-[(3-chloro-1H-indol-6-yl)carbonyl]-5-methoxyspiro[chromene-2,4′-piperidin]-4(3H)-one] | 47.3 nM
5 | O=C1CC2(CCN(C(=O)c3ccc4c(Cl)c[nH]c4c3)CC2)Oc2ccc(Cl)cc21 [Ex. L7, 6-chloro-1′-[(3-chloro-1H-indol-6-yl)carbonyl]spiro[chromene-2,4′-piperidin]-4(3H)-one] | 183 nM
6 | Cc1cc2c(cc1Cl)C(=O)CC1(CCN(C(=O)c3ccc4[nH]ccc4c3)CC1)O2 [Ex. L8, 6-chloro-1′-(1H-indol-5-ylcarbonyl)-7-methylspiro[chromene-2,4′-piperidin]-4(3H)-one] | 456 nM
7 | Cc1cc2c(cc1C)C(=O)CC1(CCN(C(=O)c3ccc4[nH]cc(Cl)c4c3)CC1)O2 [Ex. L9, 1′-[(3-chloro-1H-indol-5-yl)carbonyl]-6,7-dimethylspiro[chromene-2,4′-piperidin]-4(3H)-one] | 43.8 nM
8 | COc1cccc2c1C(=O)CC1(CCN(C(=O)c3ccc4[nH]cc(Cl)c4c3)CC1)O2 [Ex. L10, 1′-[(3-chloro-1H-indol-5-yl)carbonyl]-5-methoxyspiro[chromene-2,4′-piperidin]-4(3H)-one] | 101 nM
9 | COc1cccc2c1C(=O)CC1(CCN(C(=O)c3ccc4[nH]c(C)c(C)c4c3)CC1)O2 [Ex. L11, 1′-[(2,3-dimethyl-1H-indol-5-yl)carbonyl]-5-methoxyspiro[chromene-2,4′-piperidin]-4(3H)-one] | 113 nM
10 | Cc1[nH]c2ccc(C(=O)N3CCC4(CC3)CC(=O)c3cc(Cl)ccc3O4)cc2c1C [Ex. L12, 6-chloro-1′-[(2,3-dimethyl-1H-indol-5-yl)carbonyl]spiro[chromene-2,4′-piperidin]-4(3H)-one] | < 1000 nM
11 | Cc1cc2c(cc1C)C(=O)CC1(CCN(C(=O)c3ccc4c(c3)CC(=O)N4)CC1)O2 [Ex. L13, 6,7-dimethyl-1′-[(2-oxo-2,3-dihydro-1H-indol-5-yl)carbonyl]spiro[chromene-2,4′-piperidin]-4(3H)-one] | < 3000 nM
12 | Cc1cc2c(cc1C)C(=O)CC1(CCN(C(=O)c3cccc4c3ccn4C)CC1)O2 [Ex. L15, 6,7-dimethyl-1′-[(1-methyl-1H-indol-4-yl)carbonyl]spiro[chromene-2,4′-piperidin]-4(3H)-one] | 415 nM
13 | COc1cccc2c1C(=O)CC1(CCN(C(=O)c3ccc4[nH]c5c(c4c3)CCCC5)CC1)O2 [Ex. L16, 5-methoxy-1′-(2,3,4,9-tetrahydro-1H-carbazol-6-ylcarbonyl)spiro[chromene-2,4′-piperidin]-4(3H)-one] | 65 nM
14 | Cc1cc2c(cc1C)C(=O)CC1(CCN(C(=O)c3cccc4[nH]cnc34)CC1)O2 [Ex. L17, 1′-(1H-benzimidazol-4-ylcarbonyl)-6,7-dimethylspiro[chromene-2,4′-piperidin]-4(3H)-one trifluoroacetic acid salt] | 885 nM
15 | Cc1cc2c(cc1Cl)C(=O)CC1(CCN(C(=O)c3cccc4[nH]cnc34)CC1)O2 [Ex. L18, 1′-(1H-benzimidazol-4-ylcarbonyl)-6-chloro-7-methylspiro[chromene-2,4′-piperidin]-4(3H)-one] | 2010 nM
16 | Cc1nc2c(C(=O)N3CCC4(CC3)CC(=O)c3cc(C)c(C)cc3O4)cccc2[nH]1 [Ex. L19, 6,7-dimethyl-1′-[(2-methyl-1H-benzimidazol-4-yl)carbonyl]spiro[chromene-2,4′-piperidin]-4(3H)-one trifluoroacetic acid salt] | < 3000 nM
17 | Cc1cc2c(cc1C)C(=O)CC1(CCN(C(=O)c3cccc4c3ncn4C(C)C)CC1)O2 [Ex. L21, 1′-[(1-isopropyl-1H-benzimidazol-4-yl)carbonyl]-6,7-dimethylspiro[chromene-2,4′-piperidin]-4(3H)-one trifluoroacetic acid salt] | 670 nM
18 | Cc1cc2c(cc1C)C(=O)CC1(CCN(C(=O)c3ccc4nc[nH]c4c3)CC1)O2 [Ex. L22, 1′-(1H-benzimidazol-5-ylcarbonyl)-6,7-dimethylspiro[chromene-2,4′-piperidin]-4(3H)-one trifluoroacetic acid salt] | 164 nM

Row | SMILES | IC50
19 | Cc1cc2c(cc1C)C(=O)CC1(CCN(C(=O)c3ccc4c(c3)ncn4C)CC1)O2 [Ex. L23, 6,7-dimethyl-1′-[(1-methyl-1H-benzimidazol-5-yl)carbonyl]spiro[chromene-2,4′-piperidin]-4(3H)-one trifluoroacetic acid salt] | 1170 nM
20 | Cc1nc2cc(C(=O)N3CCC4(CC3)CC(=O)c3cc(C)c(C)cc3O4)ccc2[nH]1 [Ex. L24, 6,7-dimethyl-1′-[(2-methyl-1H-benzimidazol-5-yl)carbonyl]spiro[chromene-2,4′-piperidin]-4(3H)-one trifluoroacetic acid salt] | 825 nM
21 | Cc1cc2c(cc1C)C(=O)CC1(CCN(C(=O)c3ccc4[nH]c(C(F)(F)F)nc4c3)CC1)O2 [Ex. L25, 6,7-dimethyl-1′-{[2-(trifluoromethyl)-1H-benzimidazol-5-yl]carbonyl}spiro[chromene-2,4′-piperidin]-4(3H)-one trifluoroacetic acid salt] | 613 nM
22 | Cc1cc2c(cc1C)C(=O)CC1(CCN(C(=O)c3ccc4[nH]c(-c5ccccn5)nc4c3)CC1)O2 [Ex. L26, 6,7-dimethyl-1′-[(2-pyridin-2-yl-1H-benzimidazol-5-yl)carbonyl]spiro[chromene-2,4′-piperidin]-4(3H)-one trifluoroacetic acid salt] | 63.5 nM
23 | COc1c(C(=O)N2CCC3(CC2)CC(=O)c2cc(C)c(C)cc2O3)cc(Cl)c2nc(C)[nH]c12 [Ex. L27, 1′-[(4-chloro-7-methoxy-2-methyl-1H-benzimidazol-6-yl)carbonyl]-6,7-dimethylspiro[chromene-2,4′-piperidin]-4(3H)-one] | > 1000 nM
24 | Cc1cc2c(cc1C)C(=O)CC1(CCN(C(=O)c3ccc4c(c3)nc(C)n4C)CC1)O2 [Ex. L28, 1′-[(1,2-dimethyl-1H-benzimidazol-5-yl)carbonyl]-6,7-dimethylspiro[chromene-2,4′-piperidin]-4(3H)-one] | 3150 nM
25 | Cc1cc2c(cc1C)C(=O)CC1(CCN(C(=O)c3ccc4c(c3)nc(N3CCCC3)n4C)CC1)O2 [Ex. L29, 6,7-dimethyl-1′-[(1-methyl-2-pyrrolidin-1-yl-1H-benzimidazol-5-yl)carbonyl]spiro[chromene-2,4′-piperidin]-4(3H)-one] | 130 nM
26 | CCc1nc2cc(C(=O)N3CCC4(CC3)CC(=O)c3ccccc3O4)ccc2n1-c1cccc(OC)c1 [Ex. L30, 1′-{[2-ethyl-1-(3-methoxyphenyl)-1H-benzimidazol-5-yl]carbonyl}spiro[chromene-2,4′-piperidin]-4(3H)-one] | 390 nM
27 | CCc1nc2cc(C(=O)N3CCC4(CC3)CC(=O)c3c(OC)cccc3O4)ccc2n1-c1cccc(OC)c1 [Ex. L31, 1′-{[2-ethyl-1-(3-methoxyphenyl)-1H-benzimidazol-5-yl]carbonyl}-5-methoxyspiro[chromene-2,4′-piperidin]-4(3H)-one] | 1140 nM
28 | Cc1cc2c(cc1C)C(=O)CC1(CCN(C(=O)c3ccc4c(c3)[nH]c(=O)n4C)CC1)O2 [Ex. L32, 6,7-dimethyl-1′-[(1-methyl-2-oxo-2,3-dihydro-1H-benzimidazol-5-yl)carbonyl]spiro[chromene-2,4′-piperidin]-4(3H)-one] | 190 nM
29 | Cc1cc2c(cc1C)C(=O)CC1(CCN(C(=O)c3ccc4nc[nH]c4c3)CC1)O2 [Ex. L33, 1′-(1H-benzimidazol-6-ylcarbonyl)-6,7-dimethylspiro[chromene-2,4′-piperidin]-4(3H)-one] | 99.9 nM
30 | O=C1CC2(CCN(C(=O)c3ccc4nc[nH]c4c3)CC2)Oc2ccc(Cl)cc21 [Ex. L34] | > 1000 nM
31 | COc1cccc2c1C(=O)CC1(CCN(C(=O)c3ccc4nc(-c5ccccc5)[nH]c4c3)CC1)O2 [Ex. L35, 5-methoxy-1′-[(2-phenyl-1H-benzimidazol-6-yl)-carbonyl]spiro[chromene-2,4′-piperidin]-4(3H)-one] | 15.5 nM
32 | Cc1cc2c(cc1C)C(=O)CC1(CCN(C(=O)c3ccc4nc(-c5ccncc5)[nH]c4c3)CC1)O2 [Ex. L36, 6,7-dimethyl-1′-[(2-pyridin-4-yl-1H-benzimidazol-6-yl)carbonyl]spiro[chromene-2,4′-piperidin]-4(3H)-one trifluoroacetic acid salt] | 50.7 nM
33 | Cc1cc2c(cc1C)C(=O)CC1(CCN(C(=O)c3ccc4[nH]nnc4c3)CC1)O2 [Ex. L37, 1′-(1H-1,2,3-benzotriazol-5-ylcarbonyl)-6,7-dimethylspiro[chromene-2,4′-piperidin]-4(3H)-one] | 151 nM
34 | O=C1CC2(CCN(C(=O)c3ccc4[nH]nnc4c3)CC2)Oc2ccc(Cl)cc21 [Ex. L38, 1′-(1H-1,2,3-benzotriazol-5-ylcarbonyl)-6-chlorospiro[chromene-2,4′-piperidin]-4(3H)-one] | < 1000 nM
35 | Cc1cc2c(cc1C)C(=O)CC1(CCN(C(=O)c3ccc4[nH]nnc4c3)CC1)O2 [Ex. L39, 1′-(1H-1,2,3-benzotriazol-5-ylcarbonyl)-6,7-dimethylspiro[chromene-2,4′-piperidin]-4(3H)-one trifluoroacetic acid salt] | 362 nM

— US20090270435A1 (priority 2006, published 2009)
